According to US8133849B2, “Herbicidal compounds” (Syngenta Limited, priority 2007, dated 2012):

How the values were obtained:
Assay in all cases: Example B2 herbicidal action, post-emergence, pots in glasshouse, damage score 0-10
Type in all cases: in vivo
Conditions in all cases: application post-emergence, rate 1000 g/ha, evaluated after 13 days
Echinochloa crus-galli = test system: Echinochloa crus-galli
Description: (§1) Seeds of a variety of test species were sown in standard soil in pots. After 8 days cultivation (post-emergence) under controlled conditions in a glasshouse (at 24/16° C., day/night; 14 hours light; 65% humidity), the plants were sprayed with an aqueous spray solution derived from the formulation of the technical active ingredient in acetone/water (50:50) solution containing 0.5% Tween 20 (polyoxyethelyene sorbitan monolaurate, CAS RN 9005-64-5). The test plants were then grown in a glasshouse under controlled conditions in a glasshouse (at 24/16° C., day/night; 14 hours light; 65% humidity) and watered twice daily. After 13 days, the test was evaluated (10=total damage to plant; 0=no damage to plant).

Solanum nigrum = test system: Solanum nigrum
Description: as §1

Ipomea hederaceae = test system: Ipomea hederaceae
Description: as §1

Setaria faberi = test system: Setaria faberi
Description: as §1

Amaranthus retroflexus = test system: Amaranthus retroflexus
Description: as §1

Row | Compound | ECHCG damage score (10=total damage to plant; 0=no damage to plant) (Echinochloa crus-galli) | SOLNI damage score (10=total damage to plant; 0=no damage to plant) (Solanum nigrum) | IPOHE damage score (10=total damage to plant; 0=no damage to plant) (Ipomea hederaceae) | SETFA damage score (10=total damage to plant; 0=no damage to plant) (Setaria faberi) | AMARE damage score (10=total damage to plant; 0=no damage to plant) (Amaranthus retroflexus)
1 | CC#CCN1c2nccnc2C(OC(=O)SCC)=C(c2c(Cl)ccc(Cl)c2C(F)(F)F)S1(=O)=O [Compound C97] | 1 | 6 | 4 | 0 | 0
2 | CCOC(=O)c1ccc(C(F)(F)F)nc1C1=C(OC(=O)SC)c2nccnc2N(CCC(F)F)S1(=O)=O [Compound C139, 2-[1-(3,3-difluoro-propyl)-4-methylsulfanylcarbonyloxy-2,2-dioxo-1,2-dihydro-2-λ-6-thia-1,5,8-triaza-naphthalen-3-yl]-6-trifluoromethyl-nicotinic acid ethyl ester] | 0 | 0 | 1 | 3 | 0
3 | CCN1c2nccnc2C(O)=C(c2c(F)ccc(Br)c2Cl)S1(=O)=O [Compound D13] | 5 | 9 | 9 | 2 | 8
4 | CCOC(=O)OC1=C(c2cc(Cl)cc(C(F)(F)F)c2)S(=O)(=O)N(CC(F)F)c2nccnc21 [Compound C124] | 0 | 2 | 2 | 0 | 10
5 | CC(C)(C)C(=O)OC1=C(c2cccc(C(F)(F)F)c2Cl)S(=O)(=O)N(CC(F)F)c2nccnc21 [Compound C74] | 4 | 6 | 7 | 3 | 7
6 | CC(C)C(=O)OC1=C(c2ccccc2SC(F)(F)F)S(=O)(=O)N(CC(F)F)c2nccnc21 [Compound C18] | 1 | 3 | 6 | 0 | 9
7 | O=S1(=O)C(c2c(Br)cccc2Br)=C(O)c2nccnc2N1CC(F)F [Compound D28] | 8 | 9 | 8 | 8 | 10
8 | CCN1c2nccnc2C(OC(=O)C(C)(C)C)=C(c2cc(C(F)(F)F)ccc2C(F)(F)F)S1(=O)=O [Compound C46] | 4 | 6 | 5 | 0 | 4
9 | CCSC(=O)OC1=C(c2cccc(Cl)c2Cl)S(=O)(=O)N(CC(F)F)c2nccnc21 [Compound C101] | 5 | 10 | 8 | 2 | 4
10 | CC(C)C(=O)OC1=C(c2ccc(Br)cc2C(F)(F)F)S(=O)(=O)N(CC(F)F)c2nccnc21 [Compound C132] | 6 | 10 | 10 | 7 | 10
11 | CCN1c2nccnc2C(OC(=O)C(C)(C)C)=C(c2cc(Cl)ccc2C(F)(F)F)S1(=O)=O [Compound C108] | 3 | 7 | 3 | 2 | 4
12 | CC(C)C(=O)OC1=C(c2cc(Cl)cc(C(F)(F)F)c2)S(=O)(=O)N(CC(F)F)c2nccnc21 [Compound C149] | 0 | 8 | 0 | 0 | 10
13 | CCN1c2nccnc2C(O)=C(c2ccccc2C(F)(F)F)S1(=O)=O [Compound D33] | 8 | 10 | 10 | 8 | 9
14 | CCN1c2nccnc2C(OC(=O)C(C)C)=C(c2ccccc2[N+](=O)[O-])S1(=O)=O [Compound C67] | 0 | 1 | 2 | 0 | 0
15 | CCN1c2nccnc2C(OC(=O)C(C)(C)C)=C(c2cc(F)c(Cl)cc2Cl)S1(=O)=O [Compound C45] | 4 | 7 | 9 | 1 | 0
16 | CC(C)(C)C(=O)OC1=C(c2ccccc2C(F)(F)F)S(=O)(=O)N(CC(F)F)c2nccnc21 [Compound C62] | 4 | 6 | 8 | 6 | 7
17 | O=S1(=O)C(c2cccc(Cl)c2Cl)=C(O)c2nccnc2N1CC(F)F [Compound D50] | 1 | 10 | 8 | 2 | 5
18 | CC(C)(C)C(=O)OC1=C(c2c(Cl)cccc2C(F)(F)F)S(=O)(=O)N(CC(F)F)c2nccnc21 [Compound C31] | 8 | 9 | 8 | 7 | 8
19 | O=S1(=O)C(c2cc(C(F)(F)F)ccc2Br)=C(O)c2nccnc2N1CC(F)F [Compound D30] | 6 | 10 | 10 | 3 | 10
20 | CCSC(=O)OC1=C(c2c(F)ccc(Cl)c2Cl)S(=O)(=O)N(CC(F)F)c2nccnc21 [Compound C32] | 7 | 8 | 9 | 1 | 8
21 | COc1ccc(Cl)c(C2=C(O)c3nccnc3N(CC(F)F)S2(=O)=O)c1F [Compound D60] | 4 | 7 | 8 | 2 | 1
